The conditions of data set [1]: total regeneration energy; cited from earlier work.
Data set [2] can be described thus: Stability after steam stripping by NMR and XRD. The class given is physicochemical. The following applies: 1H-NMR and XRD versus synthesized / conventionally regenerated sample. Here is the method: Infrared sensors for CO2 concentration measurements in the inlet and outlet gas streams were used. For gas sample measurements, the exhaust gas passed through a water trap and hydrophobic filter (CM-0118) prior to reaching the sensor to avoid excess water. A total inorganic carbon analyzer containing an acidification module and a CO2 coulometer module was used to determine inorganic carbon content in solid samples. Air at 100 mL/min was used as a carrier gas, and calculations were based on sample weight. A 1 M Na2CO3 solution was used as a standard. Solid samples (40-60 mg) were weighed out into small Teflon cups, and the entire cup was transferred into a 15-mL sample flask. A volume of 5 mL of 2 M HCl acid was dispensed to acidify each sample. Solid samples were analyzed in duplicates. X-ray diffraction (XRD) measurements were conducted using an X-ray diffraction system equipped with a solid-state detector. For the XRD measurements, X-rays were generated at 45 kV/40 mA, and the X-ray beam wavelength was λ=1.5406 A (Cu Kα radiation). Nuclear magnetic resonance (NMR) measurements were performed to quantify solvent degradation after regeneration. The 1D spectra were recorded on a 400 MHz NMR spectrometer equipped with a 5 mm BBI or BBO probe. A residual solvent peak was used as an internal reference (DMSO-d6: 2.50 ppm). […]

The nature of data set [3]: Aqueous solubility of regenerated sorbent. It counts as physicochemical. The following applies: free base.

Entries after “also recorded” stand apart in the source; their conditions may differ.

Turning to `N=C(N)N/N=C/C=N/NC(=N)N` [GBIG-C, GBIG carbonate], in data set [1], the regeneration energy was 3.4 kJ/g-CO2.
With `N=C(N)NN=CC=NNC(=N)N` [GBIG, glyoxal-bis(iminoguanidine)], the “chemical stability after direct steam regeneration” value in data set [2] was “no chemical degradation occurred”.
For the molecule `CC(/C=N/NC(=N)N)=N\NC(=N)N` [MGBIG-C, methylglyoxal-bis(iminoguanidine) (MGBIG) carbonate], the regeneration energy in data set [1] is listed as 7.0-10.2 kJ/g-CO2.
On to `CC(/C=N/NC(=N)N)=N\NC(=N)N` [MGBIG, methylglyoxal-bis(iminoguanidine)], for which the “chemical stability after direct steam regeneration” value in data set [2] is “no chemical degradation occurred”. In data set [3], the aqueous solubility result was “completely dissolved in water; also recorded: high aqueous solubility”.
